Measured values: paper PMC8361756, “Treatment of Cardiovascular Dysfunction With PDE5-Inhibitors – Temperature Dependent Effects on Transport and Metabolism of cAMP and cGMP” (Frontiers in Physiology, 2021)
Where two headings read alike, the source gives them in different places.

Assays:
[1] = target: cGMP-efflux (ABCC5) (Homo sapiens, UniProt O15440); assay type: biochemical; settings: for IC25–IC75 interval cGMP-efflux: concentration needed to increase inhibition from 25% to 75%
Experimental: (§1) Cellular extrusion was determined using the inside-out vesicle (IOV) method where erythrocytes from healthy, human donors were sampled. […] The erythrocytes were separated from plasma by centrifugation and washed. […] The membrane vesiculation was initiated by adding […] buffer to the cell suspension. After centrifugation, the suspension was forced through a syringe needle to enhance homogenization of the membranes. IOVs were separated from right side out vesicles (ROV) and unsealed erythrocyte membranes (ghosts) by ultracentrifugation overnight using a density gradient. The uppermost band was collected, washed, and resuspended. […] Batches of IOVs used in the parallels were made eight times, including blood from a total of 35 healthy donors.
(§2) The incubation solutions also included radioactive labeled [^3H]-cGMP and [^3H]-cAMP (Perkin Elmer, Boston, MA, United States), at a concentration of, respectively, 2 μM and 20 μM. […] Incubation time of 60 min was chosen to ensure sufficient quality of the samples for each parallel (Table 2). The transport was stopped by adding ice cold buffer. The IOVs were then filtered through a nitrocellulose membrane (Bio-Rad Laboratories, Feldkirchen, Germany), and the membrane was dried. The dried membranes were later added scintillation fluid and radioactivity was measured using a Packard TopCount NXT (Packard, Downers Grove, IL, United States).
(§3) Experiments determined total ATP-dependent cellular efflux of cGMP or cAMP from IOVs.

[2] = target: T1, cAMP-efflux (ABCC4) (Homo sapiens, UniProt O15439); assay: biochemical; assay type: biochemical; settings: for Inhibition of cAMP-efflux: 1.00 nM to 1.00 mM; for Inhibition of cAMP-efflux / IC50: 60 min, IOV; for IC25–IC75 interval cAMP-efflux: concentration needed to increase inhibition from 25% to 75%; for IC50: 20 μM [3H]-cAMP; for Ki: Cheng-Prusoff from IC50
T1 construct: from tissue; host or cells: human erythrocyte membranes (inside-out vesicles), pooled donors
T1 sequence (O15439 1-1325): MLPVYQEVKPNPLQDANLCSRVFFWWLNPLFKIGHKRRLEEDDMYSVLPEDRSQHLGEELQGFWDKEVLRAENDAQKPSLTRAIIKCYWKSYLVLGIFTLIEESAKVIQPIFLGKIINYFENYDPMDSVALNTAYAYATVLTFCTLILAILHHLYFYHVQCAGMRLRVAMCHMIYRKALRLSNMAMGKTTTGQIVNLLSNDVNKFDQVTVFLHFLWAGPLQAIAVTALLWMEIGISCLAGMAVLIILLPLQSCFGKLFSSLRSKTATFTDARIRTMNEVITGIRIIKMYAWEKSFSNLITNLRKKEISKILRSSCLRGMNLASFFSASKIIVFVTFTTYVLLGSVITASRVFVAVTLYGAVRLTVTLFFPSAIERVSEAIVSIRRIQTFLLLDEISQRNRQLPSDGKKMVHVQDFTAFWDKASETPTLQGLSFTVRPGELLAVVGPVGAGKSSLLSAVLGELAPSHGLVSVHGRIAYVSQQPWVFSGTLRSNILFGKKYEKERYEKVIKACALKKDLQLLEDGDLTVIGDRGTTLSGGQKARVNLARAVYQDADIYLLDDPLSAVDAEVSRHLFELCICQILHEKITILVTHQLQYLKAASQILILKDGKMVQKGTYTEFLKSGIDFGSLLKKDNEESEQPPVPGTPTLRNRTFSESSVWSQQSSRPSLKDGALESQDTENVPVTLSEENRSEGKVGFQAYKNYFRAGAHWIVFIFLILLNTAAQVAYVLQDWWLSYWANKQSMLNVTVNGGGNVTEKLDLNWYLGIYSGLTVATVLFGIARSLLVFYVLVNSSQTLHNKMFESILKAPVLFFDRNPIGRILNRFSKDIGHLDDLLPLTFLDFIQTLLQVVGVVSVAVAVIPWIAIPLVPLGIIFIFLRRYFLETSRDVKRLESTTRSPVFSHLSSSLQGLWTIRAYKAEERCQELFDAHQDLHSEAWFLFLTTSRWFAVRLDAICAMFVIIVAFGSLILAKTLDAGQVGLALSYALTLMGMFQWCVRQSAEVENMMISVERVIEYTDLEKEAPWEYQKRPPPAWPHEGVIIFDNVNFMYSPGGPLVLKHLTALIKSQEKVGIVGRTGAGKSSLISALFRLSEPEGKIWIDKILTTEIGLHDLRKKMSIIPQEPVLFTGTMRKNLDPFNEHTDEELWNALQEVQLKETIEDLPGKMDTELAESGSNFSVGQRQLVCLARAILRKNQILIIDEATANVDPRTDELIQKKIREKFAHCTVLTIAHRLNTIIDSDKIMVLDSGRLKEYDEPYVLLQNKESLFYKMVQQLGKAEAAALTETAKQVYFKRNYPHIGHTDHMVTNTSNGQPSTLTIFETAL
Experimental: as §1, §2, §3

[3] = ref Walker (1999); cited from earlier work
[4] = tested on: PDE3; settings: for IC25–IC75 interval PDE3: concentration needed to increase inhibition from 25% to 75%; for IC50: read-out: IC50 PDE3, 5 μM cAMP, 30 min; for Ki: read-out: Ki PDE3-inhibition, Cheng-Prusoff from IC50
Experimental: (§4) The assays were performed in triplicates at three different days. […] The reaction was started by adding either a solution containing 0.016 units/μg protein of PDE3 (Abcam, Cambridge United Kingdom), or 0.022 units/μg protein of PDE5 (Sigma-Aldrich, St. Louis, MO, United States), to the Eppendorf tubes. Parallels for cAMP-metabolism included PDE3 only and parallels for cGMP-metabolism included PDE5 only. Control samples were free of drug and was either with or without PDE3 or PDE5. This was done to assure that only the relevant PDE was responsible for breakdown of the cyclic nucleotide, as no other enzyme nor cellular material was added to the incubations. The incubation time was 30 min (see Table 2). Reaction was stopped by adding methanol to the tubes. Internal standard of cGMP/GMP or cAMP/AMP (Sigma-Aldrich, St. Louis, MO, United States, Germany and Toronto Research Chemicals Inc., Toronto, ON, Canada) were added to each sample. Five samples contained only known concentrations of cGMP/GMP or cAMP/AMP and served as calibrators. Samples were analyzed for cGMP/GMP and cAMP/AMP content, using MS.

[5] = target: PDE5 (Homo sapiens, UniProt O76074); settings: concentration needed to increase inhibition from 25% to 75%
Experimental: as §4

Chain of cGMP-efflux (ABCC5) (O15440 whole entry): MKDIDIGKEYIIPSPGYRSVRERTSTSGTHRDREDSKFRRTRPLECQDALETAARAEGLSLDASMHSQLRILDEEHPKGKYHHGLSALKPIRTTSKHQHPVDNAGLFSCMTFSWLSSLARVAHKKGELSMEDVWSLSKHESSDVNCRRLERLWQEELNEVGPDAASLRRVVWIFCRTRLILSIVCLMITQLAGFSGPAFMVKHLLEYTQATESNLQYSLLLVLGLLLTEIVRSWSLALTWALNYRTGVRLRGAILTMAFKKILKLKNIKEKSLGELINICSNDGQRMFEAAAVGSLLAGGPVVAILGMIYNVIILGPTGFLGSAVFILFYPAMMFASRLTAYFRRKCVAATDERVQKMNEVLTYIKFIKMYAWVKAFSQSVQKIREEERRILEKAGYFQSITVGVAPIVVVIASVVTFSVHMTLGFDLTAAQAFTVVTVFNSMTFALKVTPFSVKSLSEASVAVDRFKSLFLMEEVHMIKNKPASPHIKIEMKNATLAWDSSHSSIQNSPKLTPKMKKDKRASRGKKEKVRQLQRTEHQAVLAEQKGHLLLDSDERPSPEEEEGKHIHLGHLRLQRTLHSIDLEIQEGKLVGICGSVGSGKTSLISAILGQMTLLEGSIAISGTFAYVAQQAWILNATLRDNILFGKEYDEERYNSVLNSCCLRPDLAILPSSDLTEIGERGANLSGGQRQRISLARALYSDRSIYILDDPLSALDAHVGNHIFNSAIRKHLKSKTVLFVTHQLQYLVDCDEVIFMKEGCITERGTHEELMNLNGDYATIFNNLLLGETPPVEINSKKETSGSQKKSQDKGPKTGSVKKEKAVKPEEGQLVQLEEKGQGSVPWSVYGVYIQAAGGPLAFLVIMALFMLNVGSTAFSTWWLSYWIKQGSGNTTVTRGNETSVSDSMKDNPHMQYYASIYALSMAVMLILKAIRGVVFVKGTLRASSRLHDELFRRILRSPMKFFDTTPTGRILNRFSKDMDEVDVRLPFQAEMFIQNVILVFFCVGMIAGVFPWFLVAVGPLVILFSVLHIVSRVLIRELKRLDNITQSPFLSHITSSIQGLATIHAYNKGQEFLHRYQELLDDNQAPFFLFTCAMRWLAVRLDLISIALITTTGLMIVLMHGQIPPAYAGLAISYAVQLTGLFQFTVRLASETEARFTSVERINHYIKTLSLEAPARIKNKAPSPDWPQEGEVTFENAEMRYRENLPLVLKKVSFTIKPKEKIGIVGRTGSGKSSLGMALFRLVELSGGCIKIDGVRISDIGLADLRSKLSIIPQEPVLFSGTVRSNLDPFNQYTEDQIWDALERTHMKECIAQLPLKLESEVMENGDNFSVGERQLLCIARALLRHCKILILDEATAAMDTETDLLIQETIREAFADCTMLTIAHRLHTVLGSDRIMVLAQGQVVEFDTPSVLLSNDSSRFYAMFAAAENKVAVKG

CCCc1nn(C)c2c(=O)[nH]c(-c3cc(S(=O)(=O)N4CCN(C)CC4)ccc3OCC)nc12 [Sildenafil]
IC25–IC75 interval cGMP-efflux ([1]; 20°C): 19.2 ± 8.45 µM
IC25–IC75 interval cGMP-efflux ([1]; 24°C): 11.4 ± 4.73 µM
IC25–IC75 interval cGMP-efflux ([1]; 28°C): 12.0 ± 1.96 µM
IC25–IC75 interval cGMP-efflux ([1]; 32°C): 9.76 ± 3.99 µM
IC25–IC75 interval cGMP-efflux ([1]; 34°C): 13.5 ± 1.74 µM
IC25–IC75 interval cGMP-efflux ([1]; 37°C): 23.6 ± 9.08 µM
Inhibition of cAMP-efflux ([2]; 20°C): neither of the drugs were able to inhibit cAMP-efflux
Inhibition of cAMP-efflux ([2]; 24°C): neither of the drugs were able to inhibit cAMP-efflux
IC25–IC75 interval cAMP-efflux ([2]; 28°C): 13.8 ± 3.85 µM
IC25–IC75 interval cAMP-efflux ([2]; 32°C): 20.0 ± 4.27 µM
IC25–IC75 interval cAMP-efflux ([2]; 34°C): 19.8 ± 1.82 µM
IC25–IC75 interval cAMP-efflux ([2]; 37°C): 27.1 ± 9.36 µM
Protein binding [3]: 94–96%
IC25–IC75 interval PDE5 ([5]; 20°C): 0.132 ± 0.048 µM
IC25–IC75 interval PDE5 ([5]; 20°C, listed as sildenafil): 0.132 ± 0.048 µM
IC25–IC75 interval PDE5 ([5]; 24°C): 0.098 ± 0.012 µM
IC25–IC75 interval PDE5 ([5]; 24°C, listed as sildenafil): 0.098 ± 0.012 µM
IC25–IC75 interval PDE5 ([5]; 28°C): 0.083 ± 0.008 µM
IC25–IC75 interval PDE5 ([5]; 32°C): 0.060 ± 0.006 µM
IC25–IC75 interval PDE5 ([5]; 34°C): 0.055 ± 0.004 µM
IC25–IC75 interval PDE5 ([5]; 37°C): 0.038 ± 0.000 µM

CCCc1nc(C)c2c(=O)[nH]c(-c3cc(S(=O)(=O)N4CCN(CC)CC4)ccc3OCC)nn12 [Vardenafil]
IC25–IC75 interval cGMP-efflux ([1]; 20°C): 28.1 ± 14.6 µM
IC25–IC75 interval cGMP-efflux ([1]; 24°C): 13.0 ± 1.74 µM
IC25–IC75 interval cGMP-efflux ([1]; 28°C): 10.6 ± 2.75 µM
IC25–IC75 interval cGMP-efflux ([1]; 32°C): 18.0 ± 4.12 µM
IC25–IC75 interval cGMP-efflux ([1]; 34°C): 19.2 ± 3.16 µM
IC25–IC75 interval cGMP-efflux ([1]; 37°C): 12.6 ± 3.89 µM
Linear regression equation, IC50 inhibition of cGMP-efflux vs temperature ([1]; not told): y = 9.64 − 0.098x
Inhibition of cAMP-efflux ([2]; 20°C): neither of the drugs were able to inhibit cAMP-efflux
Inhibition of cAMP-efflux ([2]; 24°C): neither of the drugs were able to inhibit cAMP-efflux
IC50 ([2]; 28°C): 9.63 ± 5.79 µM
Ki ([2]; 28°C): 5.84 ± 3.51 µM
IC25–IC75 interval cAMP-efflux ([2]; 28°C): 17.3 ± 6.59 µM
IC50 ([2]; 32°C): 13 ± 1.69 µM
Ki ([2]; 32°C): 7.86 ± 1.02 µM
IC25–IC75 interval cAMP-efflux ([2]; 32°C): 27.3 ± 6.19 µM
IC50 ([2]; 34°C): 5.82 ± 0.685 µM
Ki ([2]; 34°C): 3.53 ± 0.415 µM
IC25–IC75 interval cAMP-efflux ([2]; 34°C): 19.9 ± 0.967 µM
IC50 ([2]; 37°C): 5.85 ± 0.51 µM
Ki ([2]; 37°C): 3.55 ± 0.311 µM
IC25–IC75 interval cAMP-efflux ([2]; 37°C): 30.9 ± 6.82 µM
Linear regression equation, IC50 inhibition of cAMP-efflux vs temperature ([2]; not told): y = 26.4 − 0.545x
IC25–IC75 interval PDE3 ([4]; 20°C): 709 ± 105 µM
IC25–IC75 interval PDE3 ([4]; 24°C): 148 ± 31.9 µM
IC25–IC75 interval PDE3 ([4]; 28°C): 128 ± 35.9 µM
IC25–IC75 interval PDE3 ([4]; 32°C): 107 ± 27.0 µM
IC25–IC75 interval PDE3 ([4]; 34°C): 72.1 ± 3.24 µM
IC25–IC75 interval PDE3 ([4]; 37°C): 61.0 ± 14.3 µM
IC50 ([4]; 20°C): 73.4 ± 26.3 µM
IC50 ([4]; 24°C): 55.5 ± 4.75 µM
IC50 ([4]; 28°C): 32.7 ± 11 µM
IC50 ([4]; 32°C): 40.5 ± 3.78 µM
IC50 ([4]; 34°C): 24.9 ± 5.73 µM
IC50 ([4]; 37°C): 16.5 ± 6.08 µM
Ki ([4]; 20°C): 3.36 ± 1.21 µM
Ki ([4]; 24°C): 2.54 ± 0.218 µM
Ki ([4]; 28°C): 1.5 ± 0.505 µM
Ki ([4]; 32°C): 1.85 ± 0.173 µM
Ki ([4]; 34°C): 1.14 ± 0.263 µM
Ki ([4]; 37°C): 0.757 ± 0.276 µM
IC25–IC75 interval PDE5 ([5]; 20°C): 0.103 ± 0.027 µM
IC25–IC75 interval PDE5 ([5]; 24°C): 0.074 ± 0.005 µM
IC25–IC75 interval PDE5 ([5]; 28°C): 0.049 ± 0.016 µM
IC25–IC75 interval PDE5 ([5]; 32°C): 0.062 ± 0.016 µM
IC25–IC75 interval PDE5 ([5]; 34°C): 0.028 ± 0.012 µM
IC25–IC75 interval PDE5 ([5]; 37°C): 0.059 ± 0.029 µM
